Assay results: patent US8017612B2, “Piperazine compound and use thereof as a HCV polymerase inhibitor” (priority 2006, dated 2011)
Counter-ions that a name gives are not always drawn.

Assays:
[1] = target: T1, HCV polymerase (NS5B) type 1a (Hepatitis C virus genotype 1a, UniProt P26664); experiment: Assay of enzyme (HCV polymerase) inhibitory activity, type 1a enzyme; assay type: biochemical, HCV type 1a (cloned from the blood of patients)
T1 construct: made in house; host or cells: Escherichia coli (by the 'similar method' of the 1b enzyme)
In short: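 Reactions ran 60 min at 25° C in 20 mM Tris-HCl pH 7.5, 5 mM MgCl2, 50 mM NaCl, holding genotype 1a NS5B (1.5 μg/ml, Δ47 C-terminus, 6His), substrate RNA 5 μg/ml, UTP 2 μM with tritiated UTP and other NTPs 50 μM. IC50 derived from incorporated radiolabel in filter-trapped RNA relative to uninhibited reaction.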

[2] = target: T2, HCV polymerase (NS5B) type 1b (Hepatitis C virus genotype 1b, UniProt P26663); experiment: Assay of enzyme (HCV polymerase) inhibitory activity, type 1b enzyme; assay type: biochemical, HCV BK strain (type 1b)
T2 construct: a region encoding NS5B (J Virol 1991 March, 65(3), 1105-13, 544 amino acids after deletion of 47 amino acids on the C-terminal); 6xHis (C); made in house; host or cells: Escherichia coli
In short: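 IC50 derived from [3H]UTP incorporation into TCA-insoluble RNA, compared with and without test compound. Reaction (25 °C, 60 min, Tris pH 7.5, 5 mM MgCl2): E. coli-expressed 1b NS5B Δ47 with His tag at 0.5 μg/ml, 5 μg/ml run-off substrate RNA, ATP/GTP/CTP 50 μM, UTP 2 μM.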

[3] = HCV polymerase inhibitory activity IC50, 1a, type 1a enzyme
[4] = HCV polymerase inhibitory activity IC50, 1b, type 1b enzyme
[5] = HCV polymerase inhibitory activity (IC50), 1a, type 1a enzyme 1.5 μg/ml, 25° C., 60 min
[6] = HCV polymerase inhibitory activity (IC50), 1b, type 1b enzyme 0.5 μg/ml, 25° C., 60 min

Compound `CCCc1ccc(CNC(=O)[C@H]2CN(c3nc(C)c(C(=O)C(=O)O)s3)CCN2S(=O)(=O)c2ccc(OC(F)(F)F)cc2)cc1` [Example 848, {4-methyl-2-[(R)-3-(4-propyl-benzylcarbamoyl)-4-(4-trifluoromethoxy-benzenesulfonyl)-piperazin-1-yl]-thiazol-5-yl}-oxo-acetic acid] has an IC50 [1, 3] of under 0.1 µM and an IC50 [2, 4] of under 0.1 µM.

For `CCCc1ccc(CNC(=O)[C@H]2CN(c3nc(C(F)(F)F)c(C(=O)O)s3)CCN2S(=O)(=O)c2ccc(OC(F)(F)F)cc2)cc1` [Example 453, 2-[(R)-3-(4-propyl-benzylcarbamoyl)-4-(4-trifluoromethoxy-benzenesulfonyl)-piperazin-1-yl]-4-trifluoromethyl-thiazole-5-carboxylic acid], the IC50 [1, 5] was under 0.1 µM and the IC50 [2, 6] was under 0.1 µM.

`CCC(F)(F)c1ccc(CNC(=O)[C@H]2CN(c3nc4nc(C)[nH]c(=O)c4s3)CCN2S(=O)(=O)c2ccc(OC(F)(F)F)cc2)cc1` [Example 911, (R)-4-(5-methyl-7-oxo-6,7-dihydro-thiazolo[4,5-d]pyrimidin-2-yl)-1-(4-trifluoromethoxy-benzenesulfonyl)-piperazine-2-carboxylic acid 4-(1,1-difluoro-propyl)-benzylamide] gave an IC50 [1, 3] of under 0.1 µM and an IC50 [2, 4] of under 0.1 µM.

`CC(=O)N1CCN(S(=O)(=O)c2ccc(N)cc2)C(C(=O)NCc2ccc(C(F)(F)F)cc2)C1` (stereo not shown) [Example 93, 4-acetyl-1-(4-amino-benzenesulfonyl)-piperazine-2-carboxylic acid 4-trifluoromethyl-benzylamide hydrochloride] showed an IC50 [1, 5] of over 1 µM and an IC50 [2, 6] of over 1 µM.

`CCCc1ccc(CNC(=O)[C@H]2CN(c3cnc4cncc(Br)c4n3)CCN2S(=O)(=O)c2ccc(CC)cc2)cc1` [Example 813, (R)-4-(8-bromo-pyrido[3,4-b]pyrazin-2-yl)-1-(4-ethyl-benzenesulfonyl)-piperazine-2-carboxylic acid 4-propyl-benzylamide] showed an IC50 [1, 3] of under 0.1 µM and an IC50 [2, 4] of under 0.1 µM.

`CCC(F)(F)c1ccc(CNC(=O)[C@H]2CN(c3cnc4ncccc4n3)CCN2S(=O)(=O)c2ccc(OC(F)(F)F)cc2)cc1` [Example 761, (R)-4-pyrido[2,3-b]pyrazin-2-yl-1-(4-trifluoromethoxy-benzenesulfonyl)-piperazine-2-carboxylic acid 4-(1,1-difluoro-propyl)-benzylamide] gave an IC50 [1, 3] of under 0.1 µM and an IC50 [2, 4] of under 0.1 µM.

`CCCc1ccc(CNC(=O)[C@H]2CN(c3ccncn3)CCN2S(=O)(=O)c2ccc(OC(F)(F)F)cc2)cc1` [Example 572, (R)-4-pyrimidin-4-yl-1-(4-trifluoromethoxy-benzenesulfonyl)-piperazine-2-carboxylic acid 4-propyl-benzylamide] showed an IC50 [1, 5] of under 0.1 µM and an IC50 [2, 6] of under 0.1 µM.

Compound `CN(C)c1ccc(CNC(=O)C2CN(C(=O)Cc3ccccn3)CCN2S(=O)(=O)c2ccc(I)cc2)cc1` (stereo not shown) [Example 153, 1-(4-iodo-benzenesulfonyl)-4-(2-pyridin-2-yl-acetyl)-piperazine-2-carboxylic acid 4-dimethylamino-benzylamide] has an IC50 [1, 5] of over 1 µM and an IC50 [2, 6] of over 1 µM.

`CCOC(=O)Cc1nnnn1CC(=O)N1CCN(S(=O)(=O)c2ccc(C(F)(F)F)cc2)[C@@H](C(=O)NCc2ccc(C(C)C)cc2)C1` [Example 311, (1-{2-[(R)-3-(4-isopropyl-benzylcarbamoyl)-4-(4-trifluoromethyl-benzenesulfonyl)-piperazin-1-yl]-2-oxo-ethyl}-1H-tetrazol-5-yl)-acetic acid ethyl ester] was tested, and the IC50 [1, 5] was 0.1 to 1 µM and the IC50 [2, 6] was 0.1 to 1 µM.

`CCN(CC)c1nc(Br)nc2nc(N3CCN(S(=O)(=O)c4ccc(C(F)(F)F)cc4)[C@@H](C(=O)NCc4ccc(OC(F)(F)F)cc4)C3)sc12` [Example 974, (R)-4-(5-bromo-7-diethylamino-thiazolo[4,5-d]pyrimidin-2-yl)-1-(4-trifluoromethyl-benzenesulfonyl)-piperazine-2-carboxylic acid 4-trifluoromethoxy-benzylamide] gave an IC50 [1, 3] of over 1 µM and an IC50 [2, 4] of over 1 µM.

Work on `COCc1nc(N)c2sc(N3CCN(S(=O)(=O)c4ccc(OC(F)(F)F)cc4)[C@@H](C(=O)NCc4ccc(OC(F)(F)F)cc4)C3)nc2n1` [Example 1055, (R)-4-(7-amino-5-methoxymethyl-thiazolo[4,5-d]pyrimidin-2-yl)-1-(4-trifluoromethoxy-benzenesulfonyl)-piperazine-2-carboxylic acid 4-trifluoromethoxy-benzylamide] yielded an IC50 [1, 3] of under 0.1 µM and an IC50 [2, 4] of under 0.1 µM.

`CCCc1ccc(CNC(=O)[C@H]2CN(c3cnccn3)CCN2S(=O)(=O)c2ccc(OC(F)(F)F)cc2)cc1` [Example 472, (R)-4-(4-trifluoromethoxy-benzenesulfonyl)-3,4,5,6-tetrahydro-2H-[1,2′]bipyrazinyl-3-carboxylic acid 4-propyl-benzylamide] showed an IC50 [1, 5] of under 0.1 µM and an IC50 [2, 6] of under 0.1 µM.

With `CCC(F)(F)c1ccc(CNC(=O)[C@H]2CN(c3cnc4cncnc4n3)CCN2S(=O)(=O)c2ccc(C(F)(F)F)cc2)cc1` [Example 686, (R)-4-pteridin-7-yl-1-(4-trifluoromethyl-benzenesulfonyl)-piperazine-2-carboxylic acid 4-(1,1-difluoro-propyl)-benzylamide] the IC50 [1, 3] was under 0.1 µM and the IC50 [2, 4] was under 0.1 µM.

`CC(C)c1ccc(CNC(=O)[C@H]2CN(C(=O)Nc3nncs3)CCN2S(=O)(=O)c2ccc(C(F)(F)F)cc2)cc1` [Example 332, (R)-4-(4-trifluoromethyl-benzenesulfonyl)-piperazine-1,3-dicarboxylic acid 3-(4-isopropyl-benzylamide) 1-[1,3,4]thiadiazol-2-ylamide] was tested, and the IC50 [1, 5] was 0.1 to 1 µM and the IC50 [2, 6] was under 0.1 µM.

Compound `CCC(F)(F)c1ccc(CNC(=O)[C@H]2CN(C(=O)n3cnc(N)n3)CCN2S(=O)(=O)c2ccc(OC(F)(F)F)cc2)cc1` [Example 540, (R)-4-(3-amino-[1,2,4]triazole-1-carbonyl)-1-(4-trifluoromethoxy-benzenesulfonyl)-piperazine-2-carboxylic acid 4-(1,1-difluoro-propyl)-benzylamide] has an IC50 [1, 5] of over 1 µM and an IC50 [2, 6] of over 1 µM.

With `COc1nsc(N2CCN(S(=O)(=O)c3ccc(OC(F)(F)F)cc3)[C@@H](C(=O)NCc3ccc(C(C)(C)C)cc3)C2)n1` [Example 606, (R)-4-(3-methoxy-[1,2,4]thiadiazol-5-yl)-1-(4-trifluoromethoxy-benzenesulfonyl)-piperazine-2-carboxylic acid 4-tert-butyl-benzylamide] the IC50 [1, 5] was under 0.1 µM and the IC50 [2, 6] was under 0.1 µM.

Compound `O=C(NCc1ccc(OC(F)(F)F)cc1)[C@H]1CN(c2cnc3cncnc3n2)CCN1S(=O)(=O)c1ccc(Cl)s1` [Example 792, (R)-1-(5-chloro-thiophene-2-sulfonyl)-4-pteridin-7-yl-piperazine-2-carboxylic acid 4-trifluoromethoxy-benzylamide] has an IC50 [1, 3] of under 0.1 µM and an IC50 [2, 4] of under 0.1 µM.

`CC(=O)N1CCN(S(=O)(=O)c2ccc(OC(F)(F)F)cc2)[C@@H](C(=O)NCc2ccc(-c3cccs3)cc2)C1` [Example 623, (R)-4-acetyl-1-(4-trifluoromethoxy-benzenesulfonyl)-piperazine-2-carboxylic acid 4-thiophen-2-yl-benzylamide] showed an IC50 [1, 5] of under 0.1 µM and an IC50 [2, 6] of 0.1 to 1 µM.

`Cc1cc(=O)n2nc(N3CCN(S(=O)(=O)c4ccc(OC(F)(F)F)cc4)[C@@H](C(=O)NCc4ccc(OC(F)(F)F)cc4)C3)sc2n1` [Example 920, (R)-4-(7-methyl-5-oxo-5H-[1,3,4]thiadiazolo[3,2-a]pyrimidin-2-yl)-1-(4-trifluoromethoxy-benzenesulfonyl)-piperazine-2-carboxylic acid 4-trifluoromethoxy-benzylamide] gave an IC50 [1, 3] of 0.1 to 1 µM and an IC50 [2, 4] of under 0.1 µM.

`CCCc1ccc(CNC(=O)[C@H]2CN(c3nc(C)c(C(=O)C(=O)NC)s3)CCN2S(=O)(=O)c2ccc(OC(F)(F)F)cc2)cc1` [Example 859, (R)-4-(4-methyl-5-methylaminooxalyl-thiazol-2-yl)-1-(4-trifluoromethoxy-benzenesulfonyl)-piperazine-2-carboxylic acid 4-propyl-benzylamide] gave an IC50 [1, 3] of 0.1 to 1 µM and an IC50 [2, 4] of under 0.1 µM.

With `CCC(F)(F)c1ccc(CNC(=O)[C@H]2CN(c3cnc4cncnc4n3)CCN2S(=O)(=O)c2ccc([C@H]3CC[C@H](CC(=O)O)CC3)cc2)cc1` [Example 744, trans-[4-(4-{(R)-2-[4-(1,1-difluoro-propyl)-benzylcarbamoyl]-4-pteridin-7-yl-piperazine-1-sulfonyl}-phenyl)-cyclohexyl]-acetic acid] the IC50 [1, 3] was under 0.1 µM and the IC50 [2, 4] was under 0.1 µM.

Compound `CCCc1ccc(CNC(=O)[C@H]2CN(c3cnc4cncnc4n3)CCN2S(=O)(=O)c2ccc(OC(F)(F)F)cc2)cc1N` [Example 722, (R)-4-pteridin-7-yl-1-(4-trifluoromethoxy-benzenesulfonyl)-piperazine-2-carboxylic acid 3-amino-4-propyl-benzylamide] has an IC50 [1, 3] of 0.1 to 1 µM and an IC50 [2, 4] of under 0.1 µM.

`N#Cc1ncc2sc(N3CCN(S(=O)(=O)c4ccc(OC(F)(F)F)cc4)[C@@H](C(=O)NCc4ccc(OC(F)F)cc4)C3)nc2n1` [Example 1036, (R)-4-(5-cyano-thiazolo[4,5-d]pyrimidin-2-yl)-1-(4-trifluoromethoxy-benzenesulfonyl)-piperazine-2-carboxylic acid 4-difluoromethoxy-benzylamide] showed an IC50 [1, 3] of under 0.1 µM and an IC50 [2, 4] of under 0.1 µM.
